Test results from patent US12241058B2, “Recombinant microbial system for directed evolution of glycocins and method of preparation thereof” (COUNCIL OF SCIENTIFIC & INDUSTRIAL RESEARCH, priority 2018, dated 2025).

Legend:
[1] = tested on: L. monocytogenes EGD-e; assay: Agar diffusion test (ADT) of cell lysates, zone of growth inhibition, with PAS staining for glycosylation; type: cell-based, Listeria monocytogenes; settings: ADT against L. monocytogenes, cleavage buffer treated cell lysate, glycosylation by PAS staining
[2] = tested on: human red blood cells; assay: Hemolytic assay; type: cell-based
Experimental: Samples were prepared within 3 h of performing the assay. Neo-glycocins stock solutions of 1 mg/ml were prepared by dissolving the neo-glycocins in PBS (10 mM phosphate buffer, pH 7.4); the samples were mixed by inversion to ensure neo-glycocins were completely dissolved in PBS. To prepare the Human Red Blood Cell (hRBC) solution, blood was collected from healthy individual and RBCs were isolated following standard procedure. Informed consent was acquired from all donors and this work was carried out in compliance with the ethical committee guidelines of CSIR-IMTECH with IEC NO SUIEC/14/03.
2 ml whole blood from healthy individual was centrifuged for 30 mins at 1000 rpm(4° C.). Layer of RBCs was collected and diluted with equal volume of 1×PBS and mixture was centrifuged three times for 10 mins at 1000 rpm, 4° C. To prepare 4% RBC solution, 1 ml of RBC were mixed with 24 ml 1×PBS. To examine the hemolysis property of neo-glycocins (75-1000 μM), 20 μl of freshly prepared neo-glycocins solution was mixed with 180 μl of freshly prepared hRBC solution and was placed at 37° C. for 1 h. A total of 20 μl of PBS buffer only and 20 μl of Triton X-100 1% (w/v) were mixed with 180 μl of hRBC solution as negative and positive controls, respectively. After 1 h of incubation, all samples were centrifuged at 2500 rpm for 10 min. A total of 100 μl of supernatant was collected, and the release of hemoglobin was monitored by measuring the absorbance of the supernatant at 570 nm with a Multiskan Go plate-reader (Thermo Scientific). Hemolysis percentage for each sample was calculated by dividing sample's absorbance on positive control absorbance (complete hemolysis) multiplied by 100.

[3] = tested on: L. monocytogenes; assay: Determination of the MIC against L. monocytogenes (96-well broth dilution); type: cell-based, Listeria monocytogenes; settings: Minimum Inhibitory Concentration against L. monocytogenes, 18 h at 37° C.
Experimental: One colony of an indicator strain (L. monocytogenes) was picked from an NB agar plate, inoculated to liquid NB medium and grown at 37° C., in a shaking incubator until OD^600 nm of 0.5 was reached. Then, the culture was diluted with NB medium and serial twofold dilutions with NB medium were made. Hundred microliters of Enterocin 96 solution (1 mg/ml in MQ) were transferred to a 96-well plate and mixed with 100 μl previously prepared cell suspension of sensitive strain. Similarly, positive control Nisin (1 mg/ml in MQ, Sigma Cat. # N5764), 100 μl mixture of NB medium with the Listeria, and negative controls (media alone, untreated indicator strain). 100 μL mixture of NB medium were prepared and dispersed in the same 96-well plates. The plate was incubated for 18 h at 37° C. in a shaking incubator. After incubation, the growth of bacteria was evaluated visually and by a plate reader. The analyses were performed in triplicate. Similarly, MIC of other variants of Enterocin 96 (neo-glycocins) was determined using above described method.

[4] = tested on: HepG2 cells; assay: Anti-cancer MTT reduction assay; type: cell-based; settings: 50% cell (cancerous) death, HepG2 cells, MTT, 18-24 hours
Experimental: (§1) Cytotoxicity of Enterocin 96 and its variants (neo-glycocins) against THP-1 cells and anti-cancer potential against HepG2 cells was measured by the conventional MTT reduction assay. HepG2 and THP-1 cells (1×10^4 cells/well) were seeded into the 96-well plate and cultured at 37° C. in an atmosphere of 5% CO2 to allow them to adhere overnight. After 24 hours, the cells were exposed to Enterocin 96 and its variants (neo-glycocins) at various concentrations (75-1000 μM) for 18-24 hours. After the incubation period, 150 μl media and the suspended cells were discarded and washed with 200 μl PBS. After that, 200 μl of fresh media was added followed by 20 μl of MTT (5 mg/mL) into each well in the 96-well plate and incubated for 4 h in CO2 incubator. One hundred and fifty microlitres of medium with MTT was removed from every well and 100 μl DMSO was added to each well to solubilize the formazan crystal by incubating for 20 min in CO2 incubator. Finally, the plates were read at 570 nm by using Multiskan Go plate-reader (Thermo Scientific) and then percentage of cell viability was determined.

[5] = tested on: THP-1 cells; assay: Cytotoxicity MTT reduction assay; type: cell-based; settings: 50% cell death, THP-1 cells, MTT, 18-24 hours
Experimental: as §1

“SEQ ID NO: 47: variant of Enterocin 96: MASKRDCNLMKACCAGQAVTYAIHSLLNRLGGDSSVPAGCNDIVRKYCK (Variant of Enterocin 96)” was tested, and the “Zone of inhibition as well as glycosylation positive” value (“Zone of inhibition as well” below) [1] was “positive” and the “Zone of inhibition as well” value ([1]; listed as D36V) was “Yes”.
For “SEQ ID NO: 54: variant of Enterocin 96: MASKRDCNLMKACCAGQAVTYAIHSLLNRLGGDPSDPAGCNDIVRKYCK (Variant of Enterocin 96)”, the “Zone of inhibition as well” value [1] was “neither showed any bioactivity nor glycosylation”.
In the case of “SEQ ID NO: 51: variant of Enterocin 96: MASKHDCNLMKACCAGQAVTYAIHSLLNRLGGDSSDPAGCNDIVRKYCK (Variant of Enterocin 96)”, the “Zone of inhibition as well” value [1] is reported as “positive” and the “Zone of inhibition as well” value ([1]; listed as R5H) is reported as “Yes”.
“SEQ ID NO: 58: variant of Enterocin 96: MASKRDCNLMKACCAGQAVTYAIHSLLNRLGGDSGDPAGCNDIVRKYCK (Variant of Enterocin 96)” was tested, and the “Zone of inhibition as well” value [1] was “neither showed any bioactivity nor glycosylation”.
For “SEQ ID NO: 56: variant of Enterocin 96: MASKRDCNLMKACCAGQAVTYAIHSLLNRLGGDFSDPAGCNDIVRKYCK (Variant of Enterocin 96)”, the “Zone of inhibition as well” value [1] was “neither showed any bioactivity nor glycosylation”.
In the case of “SEQ ID NO: 52: variant of Enterocin 96: MASKRDCNLMKACCAGQAVTYGIHSLLNRLGGDSSDPAGCNDIVRKYCK (Variant of Enterocin 96)”, the “Zone of inhibition as well” value [1] is reported as “positive” and the “Zone of inhibition as well” value ([1]; listed as A22G) is reported as “Yes”.
With “variant of Enterocin 96: MASKRDCNLMKACCAEQAVTYAIQSLLNRLGGDSSDPAGCNDIVRKYCK (Variant of Enterocin 96) [SEQ ID NO: 45]” the “Hemolysis (MHC in μM)” value [2] was 600 µM, the “Zone of inhibition as well” value [1] was “positive” and the “Zone of inhibition as well” value ([1]; listed as G16E-H24L) was “Yes”. The “Anti-bacterial activity (MIC in μM)” value [3] was >0.54 µM, the IC50 [4] was 222.3 ± 0.11 µM and the IC50 [5] was 167.3 ± 1.39 µM.
In the case of “SEQ ID NO: 55: variant of Enterocin 96: MASKRDCNLMKACCAGQAVTYAIHSLLNRLGGNSSDPAGCNDIVRKYCK (Variant of Enterocin 96)”, the “Zone of inhibition as well” value [1] is reported as “neither showed any bioactivity nor glycosylation”.
“SEQ ID NO: 59: variant of Enterocin 96: MASKRDCNLMKACCAGQAVTYAIHSLLNRLGGDSSEPAGCNDIVRKYCK (Variant of Enterocin 96)” was tested, and the “Zone of inhibition as well” value [1] was “neither showed any bioactivity nor glycosylation”.
With “SEQ ID NO: 53: variant of Enterocin 96: MASKRDCNLMKACCAGLAVTYAIHSLLNRLGGDSSDPAGCNDIVRKYCK (Variant of Enterocin 96)” the “Zone of inhibition as well” value [1] was “positive” and the “Zone of inhibition as well” value ([1]; listed as Q17L) was “Yes”.
With “SEQ ID NO: 44: variant of Enterocin 96: MASKRDCNLMKARCAGQAVTYAIHSLLNRLGGDSSDPAGCNDIVRKYCK (Variant of Enterocin 96)” the “Zone of inhibition as well” value [1] was “positive” and the “Zone of inhibition as well” value ([1]; listed as C13R) was “Yes”.
For “SEQ ID NO: 46: variant of Enterocin 96: MASKRDCNLMKACCAEQAVTYAIHSLLNRLGGDSSDPAGCNDIVRKYCK (Variant of Enterocin 96)”, the “Zone of inhibition as well” value [1] was “positive”.
“SEQ ID NO: 49: variant of Enterocin 96: MASKRDCNLMKACCAGHAVTYAIHSLLKRLGGDSSDPAGCNDIVRKYCK (Variant of Enterocin 96)” was tested, and the “Zone of inhibition as well” value [1] was “positive” and the “Zone of inhibition as well” value ([1]; listed as Q17H-N28K) was “Yes”.
With “SEQ ID NO: 57: variant of Enterocin 96: MASKRDCNLMKACCAGQAVTYAIHSLLNRLGGDSSDWRCK (Variant of Enterocin 96)” the “Zone of inhibition as well” value [1] was “neither showed any bioactivity nor glycosylation”.
With “variant of Enterocin 96: MASKRDCNLMKACCAGQAVTYAIHSLLNRLGGDSSGPAGCNDIVRKYCK (Variant of Enterocin 96) [SEQ ID NO: 42]” the “Hemolysis (MHC in μM)” value [2] was 600 µM, the “Zone of inhibition as well” value [1] was “positive” and the “Zone of inhibition as well” value ([1]; listed as D36G) was “Yes”. For the same substance, the “Anti-bacterial activity (MIC in μM)” value [3] was >0.54 µM, the IC50 [4] was 204.2 ± 0.134 µM and the IC50 [5] was 279.3 ± 0.0769 µM.
For “SEQ ID NO: 50: variant of Enterocin 96: MASKRDCNLMKACCAGQAVTYAIHSLLNRLGGDSSDPAGSNDIVRKYCK (Variant of Enterocin 96)”, the “Zone of inhibition as well” value [1] was “positive” and the “Zone of inhibition as well” value ([1]; listed as C40S) was “Yes”.
In the case of “SEQ ID NO: 48: variant of Enterocin 96: MASKRDCNLMKACCAGQAVTYAIHSLLYRLGGDSSDPAGCNDIVRKYCK (Variant of Enterocin 96)”, the “Zone of inhibition as well” value [1] is reported as “positive” and the “Zone of inhibition as well” value ([1]; listed as N28Y) is reported as “Yes”.
In the case of “SEQ ID NO: 43: variant of Enterocin 96: MASKRDCNLMKACCAGQAVTYAIQSLLNRLGGDSSDPAGCNDIVRKYCK (Variant of Enterocin 96)”, the “Zone of inhibition as well” value [1] is reported as “positive” and the “Zone of inhibition as well” value ([1]; listed as H24Q) is reported as “Yes”.
For “variant of Enterocin 96: MASKACCAGQAVTYAIHSLLNRLGGDSSDPAGCNDIVRKYCK (Variant of Enteriocin 96) [SEQ ID NO: 41]”, the “Hemolysis (MHC in μM)” value [2] was 600 µM, the “Zone of inhibition as well” value [1] was “positive” and the “Zone of inhibition as well” value ([1]; listed as ECT) was “Yes”. The “Anti-bacterial activity (MIC in μM)” value [3] was >0.54 µM, the IC50 [4] was 167 ± 0.122 µM and the IC50 [5] was 309.4 ± 0.388 µM.
